Data taken from US4450269A, “Mono-5-substituted-3-chloro-4H-1,2,6-thiadiazin-4-one antifungal agents” (FMC Corporation, priority 1980, dated 1984).

Tests used:
Test in all cases: Spore germination test
Assay type in all cases: cell-based
[1] = tested on: Botrytis cinerea; settings: BC, 48 hours
Method in brief: (§1)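 Compound in acetone was mixed into water agar at final 40, 10, 2.5 and 1 ppm and poured into quadrant dishes. Quadrants received spore suspension, while Erysiphe polygoni and Uromyces phaseoli spores were brushed on from infected leaves. After 48 h at 24 °C, the percentage of germinated spores was converted to a germination rating.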

[2] = tested on: Alternaria solani; settings: AS, 48 hours
Method in brief: as §1

[3] = tested on: Uromyces phaseoli; settings: UP, 48 hours
Method in brief: as §1

| Structure (SMILES) | Spore Germination Rating ([1]; 1.0 ppm) | Spore Germination Rating ([1]; 2.5 ppm) | Spore Germination Rating ([1]; 10 ppm) | Spore Germination Rating ([1]; 40 ppm) | Spore Germination Rating ([2]; 1.0 ppm) | Spore Germination Rating ([2]; 2.5 ppm) | Spore Germination Rating ([2]; 10 ppm) | Spore Germination Rating ([2]; 40 ppm) | Spore Germination Rating ([3]; 1.0 ppm) | Spore Germination Rating ([3]; 2.5 ppm) | Spore Germination Rating ([3]; 10 ppm) | Spore Germination Rating ([3]; 40 ppm) |
| --- | --- | --- | --- | --- | --- | --- | --- | --- | --- | --- | --- | --- |
| O=C(OCc1ccccc1)Oc1ccc(Oc2nsnc(Cl)c2=O)cc1 [Compound 38, 3-chloro-5-[4-(phenylmethoxycarbonyloxy)phenoxyl]-4H-1,2,6-thiadiazin-4-one] | 4 (80-100) | 4 (80-100) | 4 (80-100) | 3 (60-80) | 4 (80-100) | 4 (80-100) | 4 (80-100) | 4 (80-100) | 4 (80-100) | 4 (80-100) | 3 (60-80) | 2 (40-60) |
| CSc1ccc(Oc2nsnc(Cl)c2=O)cc1 [Compound 39, 3-chloro-5-[(4-methylthio)phenoxy]-4H-1,2,6,-thiadiazin-4-one] | 4 (80-100) | 4 (80-100) | 4 (80-100) | 3 (60-80) | 4 (80-100) | 3 (60-80) | 2 (40-60) | 0 (0-10) | 2 (40-60) | 2 (40-60) | 2 (40-60) | 0 (0-10) |
| C[S+]([O-])c1ccc(Oc2nsnc(Cl)c2=O)cc1 (stereo not drawn) [Compound 40, 3-chloro-5-[(4-methylsulfinyl)phenoxy]-4H-1,2,6,-thiadiazin-4-one] | 4 (80-100) | 4 (80-100) | 4 (80-100) | 3 (60-80) | 4 (80-100) | 2 (40-60) | 1 (10-40) | 0 (0-10) | 3 (60-80) | 2 (40-60) | 1 (10-40) | 1 (10-40) |
| CS(=O)(=O)c1ccc(Oc2nsnc(Cl)c2=O)cc1 [Compound 41, 3-chloro-5-[(4-methylsulfonyl)phenoxy]-4H--1,2,6-thiadiazin-4-one] | 0 (0-10) | 0 (0-10) | 4 (80-100) | 3 (60-80) | 4 (80-100) | 2 (40-60) | 0 (0-10) | 0 (0-10) | 4 (80-100) | 1 (10-40) | 0 (0-10) | 0 (0-10) |
| CC(=O)Nc1cccc(Oc2nsnc(Cl)c2=O)c1 [Compound 42, 3-[(3-N--acetylamino)-phenoxy]-5-chloro-4H--1,2,6-thiadiazin-4-one] | 4 (80-100) | 4 (80-100) | 4 (80-100) | 1 (10-40) | 4 (80-100) | 4 (80-100) | 4 (80-100) | 2 (40-60) | 4 (80-100) | 3 (60-80) | 1 (10-40) | 0 (0-10) |
| CC(=O)Nc1ccccc1Oc1nsnc(Cl)c1=O [Compound 43, 3-[(2-acetylamino)-phenoxy]-5-chloro-4H--1,2,6-thiadiazin-4-one] | 4 (80-100) | 4 (80-100) | 4 (80-100) | 3 (60-80) | 4 (80-100) | 4 (80-100) | 4 (80-100) | 3 (60-80) | 4 (80-100) | 4 (80-100) | 4 (80-100) | 4 (80-100) |
| O=c1c(Cl)nsnc1Oc1cccc(C(F)(F)F)c1 [Compound 44, 3-chloro-5-[(3-trifluoromethyl)phenoxy]-4H--1,2,6-thiadiazin-4-one] | 4 (80-100) | 3 (60-80) | 0 (0-10) | 0 (0-10) | 4 (80-100) | 1 (10-40) | 0 (0-10) | 0 (0-10) | 1 (10-40) | 0 (0-10) | 0 (0-10) | 0 (0-10) |
| O=C(O)Cc1ccccc1Oc1nsnc(Cl)c1=O [Compound 45, 3-(2-carboxymethylphenoxy)-5-chloro-4H--1,2,6-thiadiazin-4-one] | 4 (80-100) | 4 (80-100) | 4 (80-100) | 2 (40-60) | 4 (80-100) | 4 (80-100) | 4 (80-100) | 2 (40-60) | 4 (80-100) | 4 (80-100) | 4 (80-100) | 2 (40-60) |
| N#CCc1ccc(Oc2nsnc(Cl)c2=O)cc1 [Compound 46, 3-chloro-5-[(4-cyanomethyl)-phenoxy]4H--1,2,6-thiadiazin-4-one] | 4 (80-100) | 3 (60-80) | 3 (60-80) | 0 (0-10) | 4 (80-100) | 2 (40-60) | 2 (40-60) | 0 (0-10) | 1 (10-40) | 0 (0-10) | 0 (0-10) | 0 (0-10) |
| CC(=O)c1ccc(Oc2nsnc(Cl)c2=O)cc1 [Compound 47, 3-(4-acetylphenoxy)-5-chloro-4H--1,2,6-thiadiazin-4-one] | 4 (80-100) | 1 (10-40) | 0 (0-10) | 0 (0-10) | 2 (40-60) | 0 (0-10) | 0 (0-10) | 0 (0-10) | 0 (0-10) | 0 (0-10) | 0 (0-10) | 0 (0-10) |
| CC(=O)c1cccc(Oc2nsnc(Cl)c2=O)c1 [Compound 48, 3-(3-acetylphenoxy)-5-chloro-4H--1,2,6-thiadiazin-4-one] | 4 (80-100) | 4 (80-100) | 0 (0-10) | 0 (0-10) | 4 (80-100) | 3 (60-80) | 0 (0-10) | 0 (0-10) | 0 (0-10) | 0 (0-10) | 0 (0-10) | 0 (0-10) |
| CC(=O)c1ccccc1Oc1nsnc(Cl)c1=O [Compound 49, 3-(2-acetylphenoxy)-5-chloro-4H--1,2,6-thiadiazin-4-one] | 1 (10-40) | 1 (10-40) | 0 (0-10) | 0 (0-10) | 4 (80-100) | 3 (60-80) | 2 (40-60) | 0 (0-10) | 4 (80-100) | 1 (10-40) | 0 (0-10) | 0 (0-10) |
| O=C(O)c1ccc(Oc2nsnc(Cl)c2=O)cc1 [Compound 50, 3-(4-carboxyphenoxy)-5-chloro-4H--1,2,6-thiadiazin-4-one] | 4 (80-100) | 4 (80-100) | 4 (80-100) | 4 (80-100) | 4 (80-100) | 4 (80-100) | 4 (80-100) | 4 (80-100) | 4 (80-100) | 4 (80-100) | 2 (40-60) | 0 (0-10) |
